Literature values, collected in patent publication US20080103154A1, “3, 4-dihydro-2(IH)-quinolinone and 2(1H)-quinolinone derivatives” (Concert Pharmaceuticals Inc., priority 2006, published 2008).

Assays:
5-HT1A = target: T1, 5-HT1A (Homo sapiens, UniProt P08908); conditions: transfected cell lines expressing rat and human receptors
T1 sequence (P08908 1-422): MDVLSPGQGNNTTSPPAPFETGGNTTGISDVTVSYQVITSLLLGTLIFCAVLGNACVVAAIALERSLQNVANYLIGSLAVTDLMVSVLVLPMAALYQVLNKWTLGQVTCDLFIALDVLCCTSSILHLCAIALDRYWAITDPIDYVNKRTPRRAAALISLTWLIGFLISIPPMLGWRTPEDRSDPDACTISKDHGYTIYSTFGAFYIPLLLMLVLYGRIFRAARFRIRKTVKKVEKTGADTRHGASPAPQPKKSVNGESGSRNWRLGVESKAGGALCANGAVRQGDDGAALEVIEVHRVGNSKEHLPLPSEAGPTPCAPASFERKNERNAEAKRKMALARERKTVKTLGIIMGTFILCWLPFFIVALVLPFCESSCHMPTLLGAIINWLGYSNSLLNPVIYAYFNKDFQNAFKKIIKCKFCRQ

5-HT2A = 5-HT2A (Homo sapiens, UniProt P28223); conditions: transfected cell lines expressing rat and human receptors
5-HT2A, sequence (P28223 whole entry): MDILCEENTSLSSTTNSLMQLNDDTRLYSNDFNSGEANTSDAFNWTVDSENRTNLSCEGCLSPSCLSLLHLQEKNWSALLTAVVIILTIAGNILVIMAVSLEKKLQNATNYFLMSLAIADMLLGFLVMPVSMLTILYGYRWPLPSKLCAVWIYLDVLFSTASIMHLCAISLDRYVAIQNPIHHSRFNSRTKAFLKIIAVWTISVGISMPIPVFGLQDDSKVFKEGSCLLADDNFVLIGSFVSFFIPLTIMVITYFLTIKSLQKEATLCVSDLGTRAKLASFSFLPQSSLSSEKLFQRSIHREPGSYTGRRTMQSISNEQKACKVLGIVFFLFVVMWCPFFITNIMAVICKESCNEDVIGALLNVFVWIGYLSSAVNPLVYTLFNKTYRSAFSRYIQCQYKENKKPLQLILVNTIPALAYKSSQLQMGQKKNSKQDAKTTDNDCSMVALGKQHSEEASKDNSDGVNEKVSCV

5-HT2C = target: T2, 5-HT2C (Homo sapiens, UniProt P28335); conditions: transfected cell lines expressing rat and human receptors
T2 sequence (P28335 33-458): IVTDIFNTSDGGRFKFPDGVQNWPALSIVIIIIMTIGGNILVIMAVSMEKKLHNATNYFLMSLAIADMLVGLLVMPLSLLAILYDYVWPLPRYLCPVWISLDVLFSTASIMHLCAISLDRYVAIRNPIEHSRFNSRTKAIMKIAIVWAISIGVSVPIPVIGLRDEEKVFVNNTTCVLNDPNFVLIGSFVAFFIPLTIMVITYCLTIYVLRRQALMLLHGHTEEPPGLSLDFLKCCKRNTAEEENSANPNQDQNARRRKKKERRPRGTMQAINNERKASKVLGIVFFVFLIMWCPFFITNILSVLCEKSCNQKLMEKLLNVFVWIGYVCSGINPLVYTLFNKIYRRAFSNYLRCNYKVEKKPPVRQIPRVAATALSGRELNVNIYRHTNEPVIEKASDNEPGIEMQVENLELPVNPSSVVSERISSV

α1 = conditions: transfected cell lines expressing rat and human receptors
H1 receptors = H1 receptors (Homo sapiens, UniProt P35367); conditions: transfected cell lines expressing rat and human receptors
H1 receptors, sequence (P35367 whole entry): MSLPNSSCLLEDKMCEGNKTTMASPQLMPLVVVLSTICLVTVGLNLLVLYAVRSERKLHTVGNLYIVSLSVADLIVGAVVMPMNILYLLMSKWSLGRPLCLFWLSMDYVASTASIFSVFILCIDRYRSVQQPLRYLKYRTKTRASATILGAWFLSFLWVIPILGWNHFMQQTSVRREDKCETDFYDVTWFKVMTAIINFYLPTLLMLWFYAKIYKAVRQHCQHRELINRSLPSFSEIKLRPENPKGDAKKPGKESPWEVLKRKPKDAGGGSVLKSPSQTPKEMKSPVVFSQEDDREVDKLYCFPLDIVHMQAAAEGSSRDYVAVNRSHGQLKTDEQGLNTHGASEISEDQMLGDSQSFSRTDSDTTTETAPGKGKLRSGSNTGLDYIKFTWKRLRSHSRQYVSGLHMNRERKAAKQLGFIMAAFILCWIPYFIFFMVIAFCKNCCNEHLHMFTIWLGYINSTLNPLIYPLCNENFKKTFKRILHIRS

[1] = not given; remark: listed apart in the source

| Compound | share of activity accounted for by metabolite (humans) | potency relative to aripiprazole (metabolite of aripiprazole) | affinity binding to 5-HT1A (5-HT1A) | affinity binding to 5-HT2A (5-HT2A) | affinity to 5-HT2C (5-HT2C) | affinity to α1 (α1) | affinity to H1 receptors (H1 receptors) | metabolism ([1]; humans) | absorption ([1]; oral administration in humans) | absolute oral bioavailability ([1]; oral formulation, humans) |
| --- | --- | --- | --- | --- | --- | --- | --- | --- | --- | --- |
| O=c1ccc2ccc(OCCCCN3CCN(c4cccc(Cl)c4Cl)CC3)cc2[nH]1 [dehydroaripiprazole] | 20% | equipotent with aripiprazole | – | – | – | – | – | – | – | – |
| O=C1CCc2ccc(OCCCCN3CCN(c4cccc(Cl)c4Cl)CC3)cc2N1 [Aripiprazole] | – | – | high affinity | high affinity | moderate affinity | moderate affinity | moderate affinity | extensively metabolized | well absorbed | 87% |
